Results published in PubChem BioAssay AID504329 (Southern Research Specialized Biocontainment Screening …, 2011).

Test system: NS1A functional cell-based assay, percent inhibition
Test: H1N1 influenza NS1A inhibitors, functional cell based assay (AID 504329)

C#CCOCCOCCOCCNc1nc(N2CCN(C(=O)CCCCCCCCCCNC(=O)[C@H]([C@@H](C)CC)n3cc(CCCCN=C(N)N)nn3)CC2)nc(N2CCN(C(=O)CCCCCCCCCCNC(=O)[C@H](CO)n3cc(CCCCCN)nn3)CC2)n1
IC50: 16.1 µM

CN(C)c1ccnc2c[cH-]cc12.[Fe].c1ccc(-[c-]2[c-](-c3ccccc3)[c-](-c3ccccc3)[c-](-c3ccccc3)[c-]2-c2ccccc2)cc1 (configuration not stated)
IC50: 9.29 µM
